Experiments:
[1] = test system: rabbit serum obtained by immunizing a rabbit with the SARS-CoV strain Frankfurt 1; assay type: binding; parameters: Binding of a rabbit serum to linear peptides / Binding of a rabbit serum to looped peptides / Rabbit serum linear peptides / Rabbit serum looped peptides / Binding of a rabbit serum to linear peptides of protein N of SARS-CoV Urbani (Rabbit serum linear peptides) / Binding of a rabbit serum to looped/cyclic peptides of protein N of SARS-CoV Urbani (Rabbit serum looped peptides): unit not given here
[2] = test system: antibodies in sera from SARS patients (sera 1a, 1b, 2, 6, 37, 62, London, SARS-yellow, SARS-green); assay type: binding, human; parameters: Binding of serum 6 to linear peptides of protein X1 of SARS-CoV Urbani / Binding of serum 37 to linear peptides of protein X1 of SARS-CoV Urbani / Binding of serum 6 to looped/cyclic peptide (PEPSCAN-ELISA) / Binding of serum 37 to looped/cyclic peptide (PEPSCAN-ELISA) / Binding of serum 37 to looped/cyclic peptides of protein X1 of SARS-CoV Urbani / Binding of serum 6 to linear peptides of protein X2 / Binding of serum 37 to linear peptides of protein X2 / Binding of serum 37 to looped/cyclic peptides of protein X2 of SARS-CoV Urbani / Binding of serum 6 to linear peptides of protein M of SARS-CoV Urbani / Binding of serum 37 to linear peptides of protein M of SARS-CoV Urbani / Binding of serum 6 to looped/cyclic peptides of protein M of SARS-CoV Urbani / Binding of serum 37 to looped/cyclic peptides of protein M of SARS-CoV Urbani / Binding of serum 6 to linear peptides of protein X3 of SARS-CoV Urbani / Binding of serum 37 to linear peptides of protein X3 of SARS-CoV Urbani / Binding of serum 37 to looped/cyclic peptides of protein X3 of SARS-CoV Urbani / Binding of serum 6 to linear peptides of protein X4 of SARS-CoV Urbani / Binding of serum 37 to linear peptides of protein X4 of SARS-CoV Urbani / Binding of serum 37 to looped/cyclic peptides of protein X4 of SARS-CoV Urbani / Binding of serum 6 to linear peptides of protein X5 of SARS-CoV Urbani / Binding of serum 37 to linear peptides of protein X5 of SARS-CoV Urbani / Binding of serum 37 to looped/cyclic peptides of protein X5 of SARS-CoV Urbani / Binding of serum 6 to linear peptides of protein N of SARS-CoV Urbani / Binding of serum 37 to linear peptides of protein N of SARS-CoV Urbani / Binding of serum 6 to linear peptide (PEPSCAN-ELISA) / Binding of serum 1a to looped/cyclic peptides of protein N of SARS-CoV Urbani / Binding of serum 1b to looped/cyclic peptides of protein N of SARS-CoV Urbani / Binding of serum 2 to looped/cyclic peptides of protein N of SARS-CoV Urbani / Binding of serum 6 to looped/cyclic peptides of protein N of SARS-CoV Urbani / Binding of serum 37 to looped/cyclic peptides of protein N of SARS-CoV Urbani / Binding of serum 62 to looped/cyclic peptides of protein N of SARS-CoV Urbani / Binding of serum London to looped/cyclic peptides of protein N of SARS-CoV Urbani / Binding of serum SARS-green to looped/cyclic peptides of protein N of SARS-CoV Urbani: unit not given here
[3] = test system: recombinant human anti-SARS-CoV antibody 03-018; assay type: binding; parameters: Binding of antibody 03-018 to linear peptides of the N protein of SARS-CoV Urbani / Binding of antibody 03-018 to looped/cyclic peptides of the N protein of SARS-CoV Urbani: unit not given here
[4] = test system: control sera (pooled serum of ten healthy LUMC hospital workers; commercial negative donor pooled serum from the Dutch bloodbank); assay type: binding, human; parameters: Binding of Control serum LUMC to linear peptides / Binding of Control serum Blood-bank to linear peptides / Binding of Control serum LUMC to looped peptides / Binding of Control Serum Blood-Bank to Looped peptides / Binding of Control serum LUMC to linear peptides of the protein M of SARS-CoV Urbani / Binding of Control serum Blood-bank to linear peptides of the protein M of SARS-CoV Urbani / Binding of Control serum LUMC to looped peptides of the protein M of SARS-CoV Urbani / Binding of Control Serum Blood-Bank to Looped peptides of the protein M of SARS-CoV Urbani: unit not given here

GSQASSRSSSRSRGN
Binding of a rabbit serum to linear peptides of protein N of SARS-CoV Urbani (Rabbit serum linear peptides) [1]: 0.2 | Binding of a rabbit serum to looped/cyclic peptides of protein N of SARS-CoV Urbani (Rabbit serum looped peptides) [1]: 0.7 | Binding of serum 1a to linear peptide (PEPSCAN-ELISA) [2]: 0.3 | Binding of serum 1a to looped/cyclic peptides of protein N of SARS-CoV Urbani [2]: 0.4 | Binding of serum 1b to linear peptide (PEPSCAN-ELISA) [2]: 0.1 | Binding of serum 1b to looped/cyclic peptides of protein N of SARS-CoV Urbani [2]: 0.2 | Binding of serum 2 to linear peptide (PEPSCAN-ELISA) [2]: 0.4 | Binding of serum 2 to looped/cyclic peptides of protein N of SARS-CoV Urbani [2]: 0.4 | Binding of serum 6 to linear peptide (PEPSCAN-ELISA) [2]: 0.4 | Binding of serum 6 to looped/cyclic peptides of protein N of SARS-CoV Urbani [2]: 0.3 | Binding of serum 37 to linear peptide (PEPSCAN-ELISA) [2]: 0.7 | Binding of serum 37 to looped/cyclic peptides of protein N of SARS-CoV Urbani [2]: 0.7 | Binding of serum 62 to linear peptide (PEPSCAN-ELISA) [2]: 0.6 | Binding of serum 62 to looped/cyclic peptides of protein N of SARS-CoV Urbani [2]: 0.6 | Binding of serum London to linear peptide (PEPSCAN-ELISA) [2]: 0.6 | Binding of serum London to looped/cyclic peptides of protein N of SARS-CoV Urbani [2]: 0.5 | Binding of serum SARS-green to linear peptide (PEPSCAN-ELISA) [2]: 0.3 | Binding of serum SARS-green to looped/cyclic peptides of protein N of SARS-CoV Urbani [2]: 0.1 | Binding of serum SARS-yellow to linear peptide (PEPSCAN-ELISA) [2]: 0.7 | Binding of serum SARS-yellow to looped/cyclic peptides of protein N of SARS-CoV Urbani [2]: 0.5 | Binding of antibody 03-018 to linear peptides of the N protein of SARS-CoV Urbani [3]: 0.1 | Binding of antibody 03-018 to looped/cyclic peptides of the N protein of SARS-CoV Urbani [3]: 0.2 | Binding of Control Serum Blood-Bank to Looped peptides [4]: 0.6 | Binding of Control serum Blood-bank to linear peptides [4]: 0.8 | Binding of Control serum LUMC to linear peptides [4]: 0.8 | Binding of Control serum LUMC to looped peptides [4]: 0.6

GTWLTYHGAIKLDDK
Binding of a rabbit serum to linear peptides of protein N of SARS-CoV Urbani (Rabbit serum linear peptides) [1]: 0.1 | Binding of a rabbit serum to looped/cyclic peptides of protein N of SARS-CoV Urbani (Rabbit serum looped peptides) [1]: 0.2 | Binding of serum 1a to linear peptides of protein N of SARS-CoV Urbani [2]: 0.2 | Binding of serum 1a to looped/cyclic peptides of protein N of SARS-CoV Urbani [2]: 0.2 | Binding of serum 1b to linear peptides of protein N of SARS-CoV Urbani [2]: 0.1 | Binding of serum 1b to looped/cyclic peptides of protein N of SARS-CoV Urbani [2]: 0.1 | Binding of serum 2 to linear peptides of protein N of SARS-CoV Urbani [2]: 0.2 | Binding of serum 2 to looped/cyclic peptides of protein N of SARS-CoV Urbani [2]: 0.2 | Binding of serum 6 to linear peptides of protein N of SARS-CoV Urbani [2]: 0.1 | Binding of serum 6 to looped/cyclic peptides of protein N of SARS-CoV Urbani [2]: 0.1 | Binding of serum 37 to linear peptides of protein N of SARS-CoV Urbani [2]: 0.7 | Binding of serum 37 to looped/cyclic peptides of protein N of SARS-CoV Urbani [2]: 0.4 | Binding of serum 62 to linear peptides of protein N of SARS-CoV Urbani [2]: 0.7 | Binding of serum 62 to looped/cyclic peptides of protein N of SARS-CoV Urbani [2]: 0.3 | Binding of serum London to linear peptides of protein N of SARS-CoV Urbani [2]: 0.5 | Binding of serum London to looped/cyclic peptides of protein N of SARS-CoV Urbani [2]: 0.3 | Binding of serum SARS-green to linear peptides of protein N of SARS-CoV Urbani [2]: 0.4 | Binding of serum SARS-green to looped/cyclic peptides of protein N of SARS-CoV Urbani [2]: 0.1 | Binding of serum SARS-yellow to linear peptides of protein N of SARS-CoV Urbani [2]: 0.7 | Binding of serum SARS-yellow to looped/cyclic peptides of protein N of SARS-CoV Urbani [2]: 0.5 | Binding of antibody 03-018 to linear peptides of the N protein of SARS-CoV Urbani [3]: 0.1 | Binding of antibody 03-018 to looped/cyclic peptides of the N protein of SARS-CoV Urbani [3]: 0.2 | Control Serum Blood-Bank Looped peptides [4]: 0.4 | Control serum Blood-bank linear peptides [4]: 0.6 | Control serum LUMC linear peptides [4]: 0.6 | Control serum LUMC looped peptides [4]: 0.4

GVPINTNSGPDDQIG
Binding of a rabbit serum to linear peptides of protein N of SARS-CoV Urbani (Rabbit serum linear peptides) [1]: 0.1 | Binding of a rabbit serum to looped/cyclic peptides of protein N of SARS-CoV Urbani (Rabbit serum looped peptides) [1]: 0.2 | Binding of serum 1a to linear peptides of protein N of SARS-CoV Urbani [2]: 0.3 | Binding of serum 1a to looped/cyclic peptides of protein N of SARS-CoV Urbani [2]: 0.3 | Binding of serum 1b to linear peptides of protein N of SARS-CoV Urbani [2]: 0.1 | Binding of serum 1b to looped/cyclic peptides of protein N of SARS-CoV Urbani [2]: 0.2 | Binding of serum 2 to linear peptides of protein N of SARS-CoV Urbani [2]: 0.2 | Binding of serum 2 to looped/cyclic peptides of protein N of SARS-CoV Urbani [2]: 0.2 | Binding of serum 6 to linear peptides of protein N of SARS-CoV Urbani [2]: 0.2 | Binding of serum 6 to looped/cyclic peptides of protein N of SARS-CoV Urbani [2]: 0.1 | Binding of serum 37 to linear peptides of protein N of SARS-CoV Urbani [2]: 0.8 | Binding of serum 37 to looped/cyclic peptides of protein N of SARS-CoV Urbani [2]: 0.5 | Binding of serum 62 to linear peptides of protein N of SARS-CoV Urbani [2]: 0.6 | Binding of serum 62 to looped/cyclic peptides of protein N of SARS-CoV Urbani [2]: 0.3 | Binding of serum London to linear peptides of protein N of SARS-CoV Urbani [2]: 0.5 | Binding of serum London to looped/cyclic peptides of protein N of SARS-CoV Urbani [2]: 0.3 | Binding of serum SARS-green to linear peptides of protein N of SARS-CoV Urbani [2]: 0.5 | Binding of serum SARS-green to looped/cyclic peptides of protein N of SARS-CoV Urbani [2]: 0.3 | Binding of serum SARS-yellow to linear peptides of protein N of SARS-CoV Urbani [2]: 0.5 | Binding of serum SARS-yellow to looped/cyclic peptides of protein N of SARS-CoV Urbani [2]: 0.2 | Binding of antibody 03-018 to linear peptides of the N protein of SARS-CoV Urbani [3]: 0.1 | Binding of antibody 03-018 to looped/cyclic peptides of the N protein of SARS-CoV Urbani [3]: 0.2 | Binding of Control Serum Blood-Bank to Looped peptides [4]: 0.4 | Binding of Control serum Blood-bank to linear peptides [4]: 0.7 | Binding of Control serum LUMC to linear peptides [4]: 0.7 | Binding of Control serum LUMC to looped peptides [4]: 0.4

GYYRRATRRVRGGDG
Recognition of the peptide by the rabbit serum [1]: recognized | Binding of serum 1a to linear peptides of protein N of SARS-CoV Urbani [2]: 0.3 | Binding of serum 1a to looped/cyclic peptides of protein N of SARS-CoV Urbani [2]: 0.3 | Binding of serum 1b to linear peptides of protein N of SARS-CoV Urbani [2]: 0.1 | Binding of serum 1b to looped/cyclic peptides of protein N of SARS-CoV Urbani [2]: 0.1 | Binding of serum 2 to linear peptides of protein N of SARS-CoV Urbani [2]: 0.1 | Binding of serum 2 to looped/cyclic peptides of protein N of SARS-CoV Urbani [2]: 0.4 | Binding of serum 6 to linear peptides of protein N of SARS-CoV Urbani [2]: 0.2 | Binding of serum 6 to looped/cyclic peptides of protein N of SARS-CoV Urbani [2]: 0.2 | Binding of serum 37 to linear peptides of protein N of SARS-CoV Urbani [2]: 0.3 | Binding of serum 37 to looped/cyclic peptides of protein N of SARS-CoV Urbani [2]: 0.5 | Binding of serum 62 to linear peptides of protein N of SARS-CoV Urbani [2]: 0.4 | Binding of serum 62 to looped/cyclic peptides of protein N of SARS-CoV Urbani [2]: 0.4 | Binding of serum London to linear peptides of protein N of SARS-CoV Urbani [2]: 0.4 | Binding of serum London to looped/cyclic peptides of protein N of SARS-CoV Urbani [2]: 0.3 | Binding of serum SARS-green to linear peptides of protein N of SARS-CoV Urbani [2]: 0.2 | Binding of serum SARS-green to looped/cyclic peptides of protein N of SARS-CoV Urbani [2]: 0.2 | Binding of serum SARS-yellow to linear peptides of protein N of SARS-CoV Urbani [2]: 0.6 | Binding of serum SARS-yellow to looped/cyclic peptides of protein N of SARS-CoV Urbani [2]: 0.2 | Binding of antibody 03-018 to linear peptides of the N protein of SARS-CoV Urbani [3]: 0.1 | Binding of antibody 03-018 to looped/cyclic peptides of the N protein of SARS-CoV Urbani [3]: 0.2 | Binding of Control Serum Blood-Bank to Looped peptides [4]: 0.6 | Binding of Control serum Blood-bank to linear peptides [4]: 0.6 | Binding of Control serum LUMC to linear peptides [4]: 0.6 | Binding of Control serum LUMC to looped peptides [4]: 0.5

— patent US20070128217A1 (priority 2003, published 2007)
